# Measurements from paper PMC8322138, “BRCA2 binding through a cryptic repeated motif to HSF2BP oligomers does not impact meiotic recombination” (Nature Communications, 2021).
# Ends that are not written are not given here.
# Tests used:
# [1] = target: mouse HSF2BP-GFP (homozygous Hsf2bp-GFP knock-in allele) (mouse (endogenous in mES cells)) (UniProt Q9D4G2); experiment: co-IP; anti-GFP nanobody beads on lysates of Hsf2bp^GFP/GFP mES cells with Brca2 wt, ∆12 or ∆12-14 alleles; BRCA2 blotted, fluorescent secondary antibodies; NETT buffer
# [2] = target: T1, HSF2BP FL (Homo sapiens, UniProt O75031); experiment: ITC of BRCA2 fragments with full-length HSF2BP; format: binding; settings: for n (stoichiometry) / ΔG / −TΔS / ΔH (±error) / affinity (in words): 293 K
# T1 construct: Human full-length HSF2BP WT and R200T were expressed; 6xHis-TEV (N, cleaved yes); made in house; host or cells: E. coli BL21 DE3 Rosetta2
# T1 sequence (O75031 1-334): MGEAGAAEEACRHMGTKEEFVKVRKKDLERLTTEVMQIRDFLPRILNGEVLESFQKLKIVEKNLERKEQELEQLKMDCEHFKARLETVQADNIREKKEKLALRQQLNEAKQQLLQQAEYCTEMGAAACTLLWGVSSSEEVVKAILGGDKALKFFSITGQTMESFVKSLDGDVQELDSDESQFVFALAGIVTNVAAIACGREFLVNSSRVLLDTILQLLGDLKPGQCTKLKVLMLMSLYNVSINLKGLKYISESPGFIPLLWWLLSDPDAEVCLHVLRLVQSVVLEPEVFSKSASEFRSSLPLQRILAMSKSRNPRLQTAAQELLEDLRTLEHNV
# Description: (§1) Human full-length HSF2BP WT and R200T were expressed using a pETM11 (6xHis-TEV) expression vector in E. coli BL21 DE3 Rosetta2 cells, and purified as previously reported (Brandsma et al., Cell Rep 2019). The armadillo domain of HSF2BP, from aa 122 to aa 334, which we will further name ARM, was similarly expressed using a pETM11 (6xHis-TEV) expression vector in BL21 DE3 Rosetta2 cells and purified as full-length HSF2BP.
# (§2) Human BRCA2 fragment F0 was expressed using a pET-22b expression vector as a fusion protein comprising BRCA2 from aa 2213 to aa 2342 (including mutation C2332T to avoid oxidation problems), a TEV site, a GB1 and 6xHis tag, in E. coli BL21 DE3 Star cells. The BRCA2 gene was optimized for expression in bacteria and synthesized by Genscript. In addition, smaller BRCA2 fragments were produced using the same strategy: FNMR and F15X corresponding to aa 2252 to aa 2342 and aa 2291 to aa 2343, respectively. The smallest fragment F15X∆12, from aa 2312 to aa 2342, was synthesized by Genecust.
# (§3) ITC experiments were performed using a high-precision VP-ITC instrument (GE Healthcare) at 293 K. To characterize the interactions between HSF2BP and BRCA2 fragments (WT, variants), the proteins were dialyzed against 25 mM Tris pH 7.5, 250 mM NaCl, 5 mM β-mercaptoethanol. The HSF2BP (or ARM domain) was in the sample cell at 10–20 μM and was titrated by BRCA2 fragments at 40–100 μM, using 10 μL injections with 210 s intervals between each injection. The first 2 μL injection was ignored in the final data analysis. The integration of the peaks corresponding to each injection. the correction for the baseline and the fit were performed using the Origin 7.0 software provided by the manufacturer, to obtain the stoichiometry (N), dissociation constant (Kd), and enthalpy of complex formation (ΔH) for each interaction. Two replicates were performed for each experiment.
# [3] = target: T2, ARM domain of HSF2BP (Homo sapiens, UniProt O75031); experiment: Analytical gel filtration of ARM with F15XΔ12; format: physicochemical; settings: SEC, Superose 6 Increase 10/300, ARM to peptide ratio 1:1.2, pH 7.5
# T2 construct: The armadillo domain of HSF2BP, from aa 122 to aa 334; 6xHis-TEV (N, cleaved yes); made in house; host or cells: E. coli BL21 DE3 Rosetta2
# T2 sequence (O75031 122-334): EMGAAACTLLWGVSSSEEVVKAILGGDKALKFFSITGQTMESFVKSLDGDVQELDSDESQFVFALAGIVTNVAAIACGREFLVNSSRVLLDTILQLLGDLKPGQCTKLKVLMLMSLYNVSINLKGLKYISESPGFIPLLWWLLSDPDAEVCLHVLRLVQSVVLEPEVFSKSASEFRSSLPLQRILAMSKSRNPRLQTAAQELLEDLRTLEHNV
# Description: SEC was also used to characterize ARM and ARM bound to F15XΔ12. The ARM domain was loaded on a Superose 6 Increase 10/300 (GE Healthcare) alone (at 2 mg/ml) or bound to F15XΔ12 (at 5 mg/ml, ARM to peptide ratio 1:1.2) in 25 mM Tris-HCl buffer, pH 7.5, 250 mM NaCl, and 5 mM β-mercaptoethanol. The OD values from the elution of ARM alone were multiplied by 2.5 to be compared to the OD values from the elution of ARM bound to F15XΔ12.
# [4] = target: mouse BRCA2-GFP ∆12 (exon 12 deleted) (mouse (endogenous in mES cells)) (UniProt P97929); experiment: co-IP; anti-GFP nanobody beads on lysates of mES cells with homozygous Brca2-GFP alleles (full, ∆12, ∆12-14); HSF2BP blotted, fluorescent secondary antibodies; NETT buffer
# Chain of mouse BRCA2-GFP ∆12 (exon 12 deleted) (mouse (endogenous in mES cells)) (P97929 whole entry, stated change not applied): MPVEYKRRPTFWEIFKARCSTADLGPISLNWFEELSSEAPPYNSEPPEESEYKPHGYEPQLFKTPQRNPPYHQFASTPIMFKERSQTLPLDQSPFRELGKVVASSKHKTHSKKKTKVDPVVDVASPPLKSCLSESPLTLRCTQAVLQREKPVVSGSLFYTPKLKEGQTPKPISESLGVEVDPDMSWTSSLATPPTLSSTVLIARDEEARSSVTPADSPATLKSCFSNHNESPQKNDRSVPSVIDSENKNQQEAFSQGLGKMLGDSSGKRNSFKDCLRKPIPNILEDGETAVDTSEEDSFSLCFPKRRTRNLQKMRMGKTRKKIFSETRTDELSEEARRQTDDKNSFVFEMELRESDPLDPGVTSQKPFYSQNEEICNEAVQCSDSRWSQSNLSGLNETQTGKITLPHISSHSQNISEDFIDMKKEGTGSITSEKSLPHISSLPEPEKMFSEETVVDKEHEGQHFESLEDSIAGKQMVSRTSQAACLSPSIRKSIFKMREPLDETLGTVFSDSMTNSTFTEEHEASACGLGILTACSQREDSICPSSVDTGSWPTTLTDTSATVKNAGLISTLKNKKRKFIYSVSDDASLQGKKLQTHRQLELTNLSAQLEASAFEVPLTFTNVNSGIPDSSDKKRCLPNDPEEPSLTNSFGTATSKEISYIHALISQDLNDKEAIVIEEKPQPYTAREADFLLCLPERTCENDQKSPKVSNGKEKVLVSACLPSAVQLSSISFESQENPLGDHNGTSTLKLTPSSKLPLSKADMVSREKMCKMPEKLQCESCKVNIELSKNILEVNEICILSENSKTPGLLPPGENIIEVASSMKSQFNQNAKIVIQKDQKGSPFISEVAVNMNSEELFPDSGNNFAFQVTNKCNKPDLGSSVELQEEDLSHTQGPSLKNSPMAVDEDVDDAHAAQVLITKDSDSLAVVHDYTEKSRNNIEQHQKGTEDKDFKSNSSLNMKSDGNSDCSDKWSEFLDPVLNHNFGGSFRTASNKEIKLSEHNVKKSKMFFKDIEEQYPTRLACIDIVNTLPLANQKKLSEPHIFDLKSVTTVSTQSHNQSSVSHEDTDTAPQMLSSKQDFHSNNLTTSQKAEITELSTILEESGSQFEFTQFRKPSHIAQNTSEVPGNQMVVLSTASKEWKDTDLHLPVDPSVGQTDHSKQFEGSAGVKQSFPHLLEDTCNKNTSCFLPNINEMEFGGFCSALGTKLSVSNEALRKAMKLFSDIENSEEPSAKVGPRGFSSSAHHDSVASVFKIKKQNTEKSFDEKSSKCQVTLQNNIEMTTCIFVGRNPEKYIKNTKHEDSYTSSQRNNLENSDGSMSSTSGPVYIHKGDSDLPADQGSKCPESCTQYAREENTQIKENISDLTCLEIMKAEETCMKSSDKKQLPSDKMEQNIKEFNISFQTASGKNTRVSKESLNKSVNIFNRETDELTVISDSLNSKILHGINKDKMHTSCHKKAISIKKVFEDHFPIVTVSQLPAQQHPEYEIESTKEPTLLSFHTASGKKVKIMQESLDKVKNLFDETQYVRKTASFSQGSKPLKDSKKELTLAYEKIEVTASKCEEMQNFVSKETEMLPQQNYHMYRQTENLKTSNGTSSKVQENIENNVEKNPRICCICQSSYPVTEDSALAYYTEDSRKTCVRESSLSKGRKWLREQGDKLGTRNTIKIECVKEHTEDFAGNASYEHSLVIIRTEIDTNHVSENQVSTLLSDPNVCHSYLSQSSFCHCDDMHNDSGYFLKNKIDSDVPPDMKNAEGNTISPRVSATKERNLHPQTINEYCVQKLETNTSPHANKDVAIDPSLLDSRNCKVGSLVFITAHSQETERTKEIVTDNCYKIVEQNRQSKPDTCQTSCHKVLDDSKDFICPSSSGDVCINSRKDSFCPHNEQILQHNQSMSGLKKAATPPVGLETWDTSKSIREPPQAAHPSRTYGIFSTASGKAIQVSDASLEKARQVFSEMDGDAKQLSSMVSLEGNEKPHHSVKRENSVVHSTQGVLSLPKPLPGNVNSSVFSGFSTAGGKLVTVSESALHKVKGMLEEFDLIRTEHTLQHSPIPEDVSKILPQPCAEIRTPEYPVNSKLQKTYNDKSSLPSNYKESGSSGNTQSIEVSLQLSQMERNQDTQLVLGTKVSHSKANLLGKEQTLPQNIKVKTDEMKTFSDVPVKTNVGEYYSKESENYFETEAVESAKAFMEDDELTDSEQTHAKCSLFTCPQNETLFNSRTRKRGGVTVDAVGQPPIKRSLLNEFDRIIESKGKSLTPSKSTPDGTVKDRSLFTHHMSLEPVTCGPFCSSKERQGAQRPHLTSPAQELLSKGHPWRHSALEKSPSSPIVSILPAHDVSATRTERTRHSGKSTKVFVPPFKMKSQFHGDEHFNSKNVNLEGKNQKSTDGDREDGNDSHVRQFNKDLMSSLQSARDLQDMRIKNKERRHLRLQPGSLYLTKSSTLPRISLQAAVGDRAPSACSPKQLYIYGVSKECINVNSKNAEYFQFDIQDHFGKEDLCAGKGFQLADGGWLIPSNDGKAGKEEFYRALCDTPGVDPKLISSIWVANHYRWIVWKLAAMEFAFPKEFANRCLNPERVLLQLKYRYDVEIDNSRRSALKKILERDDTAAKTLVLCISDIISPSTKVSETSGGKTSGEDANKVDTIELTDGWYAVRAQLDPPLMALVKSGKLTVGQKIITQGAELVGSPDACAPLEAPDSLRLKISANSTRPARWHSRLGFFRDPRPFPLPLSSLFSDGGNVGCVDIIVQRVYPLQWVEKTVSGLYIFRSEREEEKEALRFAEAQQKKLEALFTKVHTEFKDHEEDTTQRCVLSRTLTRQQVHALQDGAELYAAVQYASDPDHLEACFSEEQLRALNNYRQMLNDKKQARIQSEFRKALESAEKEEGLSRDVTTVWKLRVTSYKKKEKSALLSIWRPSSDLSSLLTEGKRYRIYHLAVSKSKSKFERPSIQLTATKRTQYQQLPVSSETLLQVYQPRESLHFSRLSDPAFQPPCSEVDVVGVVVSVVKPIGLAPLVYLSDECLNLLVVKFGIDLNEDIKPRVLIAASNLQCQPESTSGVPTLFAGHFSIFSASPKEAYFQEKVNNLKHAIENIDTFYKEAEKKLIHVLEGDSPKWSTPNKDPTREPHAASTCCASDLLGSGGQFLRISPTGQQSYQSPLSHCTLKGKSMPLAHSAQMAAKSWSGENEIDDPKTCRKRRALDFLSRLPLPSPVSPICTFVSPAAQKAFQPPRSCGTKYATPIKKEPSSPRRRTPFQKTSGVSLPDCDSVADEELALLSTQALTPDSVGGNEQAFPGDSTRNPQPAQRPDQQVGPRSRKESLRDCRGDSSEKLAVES
# [5] = target: the molecule itself; experiment: SEC-MALS; free ARM; Superdex 200 10/300 GL; 25 mM Tris-HCl pH 7.5, 250 mM NaCl, 5 mM beta-mercaptoethanol; 0.8-1 mg/ml in 100 ul
# [6] = target: the molecule itself; experiment: SEC-MALS + other: SEC-SAXS; ARM with F15X; SEC-MALS on Superdex 200 10/300 GL, SEC-SAXS on Bio SEC-3; 25 mM Tris-HCl pH 7.5, 250 mM NaCl, 5 mM beta-mercaptoethanol; tetramer = two ARM dimers with two F15X
# [7] = target: T2, ARM domain of HSF2BP; experiment: ITC of BRCA2 fragments with HSF2BP armadillo domain; format: binding; settings: for ΔG / −TΔS / ΔH (±error): 293 K
# Description: as §1, §2, §3
# [8] = target: T2, ARM domain of HSF2BP; experiment: 2D NMR 1H-15N HSQC of 15N-labeled F0 with ARM; format: binding; settings: 15N-F0 100 μM, ARM 1:1, 950 MHz, 283 K; peaks of S2252-Q2342
# Description: For NMR analysis, ^15N-labeled or ^15N- and ^13C-labeled BRCA2 fragments were produced in E. coli BL21 DE3 Star cells grown in M9 medium containing either 0.5 g/l ^15NH4Cl or 0.5 g/l ^15NH4Cl and 2 g/l ^13C-glucose, respectively. […]
# The ^15N/^13C-labeled F0 fragment was analyzed by 3D heteronuclear NMR. in order to assign its Hn, N, Cα, Cβ, and Co chemical shifts, and identify its binding site to HSF2BP. Therefore, 3D NMR HNCA, CBCACONH, HNCACB, HNCANNH, HNCO, and HNCACO experiments were performed on a 700 MHz Bruker AVANCE NEO spectrometer equipped with a triple resonance cryogenic TCI probe at 283 K. The data were processed using Topspin 4.0 (Bruker) and analyzed using CCPNMR 2.4[49]. […] For binding studies, 2D NMR ^1H-^15N HSQC experiments were recorded on a 3-mm-diameter sample tube containing the ^15N-labeled F0 at 100 μM in the absence and presence of the ARM domain at 100 μM, on a 950 MHz Bruker Avance III spectrometer equipped with a triple resonance cryogenic TCI probe at 283 K.
# [9] = pH 7.5, expt 1, error in brackets
# [10] = pH 7.5, expt 2, error in brackets
# Chain of mouse BRCA2-∆12 in Hsf2bp^GFP/GFP Brca2^∆12/∆12 mES cells (P97929 whole entry): as the sequence (P97929 whole entry, stated change not applied) above
molecule,measurement,setting,value
mouse BRCA2-∆12 in Hsf2bp^GFP/GFP Brca2^∆12/∆12 mES cells (from UniProt P97929 1-3329) (natural protein),percent loss of co-precipitation against wild-type BRCA2,[1],97 to 99%
DGTIKDRRLFMHHVSLEPITTVPFRTTKERQE [F15XΔ12],n (stoichiometry),"[2]; pH 7.5, expt 1",0.89
same,ΔG,"[2]; pH 7.5, expt 1",-7.8 kcal/mol
same,−TΔS,"[2]; pH 7.5, expt 1",-6.1 kcal/mol
same,ΔH (±error),[2]; [9],−1.7 (0.3) kcal/mol
same,n (stoichiometry),"[2]; pH 7.5, expt 2",0.90
same,ΔG,"[2]; pH 7.5, expt 2",-7.6 kcal/mol
same,−TΔS,"[2]; pH 7.5, expt 2",-5.8 kcal/mol
same,ΔH (±error),[2]; [10],−1.8 (0.2) kcal/mol
same,affinity (in words),"[2]; pH 7.5, listed as F15X∆12",in the micromolar range
same,affinity (in words),"[2]; pH 7.5, listed as motif 2",micromolar affinity
same,stoichiometry,[2]; BRCA2 peptide per HSF2BP,1
same,affinity relative to F0 (weaker),[2]; weaker than the affinity of HSF2BP for F0,1000 -fold
same,oligomerization of ARM upon binding,[3]; listed as F15X∆12,does not oligomerize
same,oligomerization of ARM upon binding,[3]; listed as motif 2,unable by itself to trigger oligomerization
"mouse HSF2BP, endogenous in mES cells (natural protein) MAATVGDGSGTEEACRNMESKEEFVKVRKKDLERLTTEVMQIRDFLPRILNGELLESFQKLKMVEKNLERKEQELEQLIMDREHFKARLETAQADSGREKKEKLALRQQLNEAKQQLLQQAEYCTQMGAVTCTLLWGVSSSEEVVKTILGGDKALKFFNITGQTMESFVKSLDGDVKEVDSDENQFVFALAGIVTNVAAIACGREFLVNSSRVLLDTMLQLLGDLKPGQCTKLKVLMLMSLYNVSINSKGLKYITESPGFIPLLWWLLSDPDAEVCLHTLRLIQSVVLEPDVFSKVASELQSSLPLQRILAMSKSRNSHLQSAAQELLEDLRALDCNV",percent loss of co-precipitation against full-length BRCA2-GFP,[4],95%
"armadillo domain of HSF2BP, from aa 122 to aa 334 (ARM) (domain or fragment, human, UniProt O75031 122-334, looked up, Free ARM is a dimer (SEC-MALS); four ARM with two F15X in the complex; A selenomethionine-labelled form was used for the deposited crystal structure; also called HSF2BP ARM; H3 (recombinant); source: E. coli BL21 DE3 Rosetta2, purified (HisTrap, TEV cleavage, SEC)) EMGAAACTLLWGVSSSEEVVKAILGGDKALKFFSITGQTMESFVKSLDGDVQELDSDESQFVFALAGIVTNVAAIACGREFLVNSSRVLLDTILQLLGDLKPGQCTKLKVLMLMSLYNVSINLKGLKYISESPGFIPLLWWLLSDPDAEVCLHVLRLVQSVVLEPEVFSKSASEFRSSLPLQRILAMSKSRNPRLQTAAQELLEDLRTLEHNV",stoichiometry N,[5],2
same,stoichiometry N,[6],4
"FNMR: BRCA2 fragment aa 2252 to aa 2342, recombinant (protein, left off: GB1, C-terminal, cleaved | His6, C-terminal, cleaved, BRCA2 fragment aa 2252 to aa 2342, recombinant) SLFTCPENEEMVLSNSRIGKRRGEPLILVGEPSIKRNLLNEFDRIIENQEKSLKASKSTPDGTIKDRRLFMHHVSLEPITTVPFRTTKERQ",ΔG,"[7]; pH 7.5, expt 1",-10.8 kcal/mol
same,−TΔS,"[7]; pH 7.5, expt 1",-1.2 kcal/mol
same,ΔH (±error),[7]; [9],−9.6 (0.1) kcal/mol
same,ΔG,"[7]; pH 7.5, expt 2",-10.5 kcal/mol
same,−TΔS,"[7]; pH 7.5, expt 2",-1.1 kcal/mol
same,ΔH (±error),[7]; [10],−9.4 (0.2) kcal/mol
same,affinity relative to F0,[7]; compared with the affinity measured between ARM and F0,about threefold higher
same,decrease of HSQC peak intensities,[8],more than 60%
